Laboratory results as given in patent publication US8802104B2, “Parathyroid hormone receptor activation and stem and progenitor cell expansion” (The General Hospital Corporation, priority 2002, dated 2014).

Assays:
renal PTH receptors = biological target: T1, renal PTH receptors (Homo sapiens, UniProt Q03431); details: cited from earlier work
T1 sequence (Q03431 27-593): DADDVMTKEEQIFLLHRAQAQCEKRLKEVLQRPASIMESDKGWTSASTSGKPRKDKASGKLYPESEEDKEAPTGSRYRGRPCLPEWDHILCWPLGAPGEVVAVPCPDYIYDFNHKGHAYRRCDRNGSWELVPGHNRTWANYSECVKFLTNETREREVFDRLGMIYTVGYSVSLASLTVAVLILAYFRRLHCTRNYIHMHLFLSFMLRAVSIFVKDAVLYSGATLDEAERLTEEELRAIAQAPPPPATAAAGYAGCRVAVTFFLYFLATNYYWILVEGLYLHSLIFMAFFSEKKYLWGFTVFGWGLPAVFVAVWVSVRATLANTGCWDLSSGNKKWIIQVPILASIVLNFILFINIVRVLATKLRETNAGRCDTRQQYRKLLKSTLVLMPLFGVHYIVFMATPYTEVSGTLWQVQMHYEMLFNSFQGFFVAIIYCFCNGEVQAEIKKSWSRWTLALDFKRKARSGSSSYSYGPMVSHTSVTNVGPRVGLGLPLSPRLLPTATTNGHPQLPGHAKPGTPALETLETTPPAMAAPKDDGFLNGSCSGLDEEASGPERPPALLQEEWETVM

[1] = tested on: PTH-stimulated adenylate cyclase; details: cited from earlier work
C-1498/GFP cells [2] = assay: Annexin staining of leukemia cells cultured with OPN; type: cell-based, mouse; details: FIG. 13a
Method: (§1) To investigate the role of OPN as a candidate molecule, it was explored whether recombinant OPN is sufficient to reproduce the growth inhibition of leukemia cells in vitro. To this end, C-1498/GFP cells were cultured in wells with either (a) no OPN, (b) with 5 and 10 ug/ml of OPN. […] It was therefore concluded that recombinant osteopontin is sufficient to limit leukemic cell expansion. […] Given that PTH increases osteoblast production of OPN, it is likely that OPN participates in the preferential support of normal over leukemic cells in vivo with PTH stimulation of the stem cell niche.

C-1498/GFP cells [3] = assay: Recombinant OPN on C-1498/GFP leukemia cell growth in vitro; type: cell-based, mouse
Method: as §1

peripheral blood cells = assay: Complete blood count during cyclophosphamide chemotherapy cycles; type: in vivo, C57Bl/6 mice; details: cyclophosphamide 5 mg per cycle, G-CSF 5 μg/day 8 days
Method: (§2) Wild-type C57Bl/6 mice were treated with 5 mg of cyclophosphamide (Day 1). The day following injection of cyclophosphamide, mice received no treatment or were treated for 8 days with G-CSF (5 μg/day), 11 days with PTH (80 μg/kg/day) or a combination of G-CSF plus PTH. Mice that received a combination of both G-CSF and PTH received G-CSF treatment for 8 days and PTH treatment for 11 days. Following this treatment protocol, mice were injected with cyclophosphamide on Day 15 and treated with G-CSF, PTH or G-CSF and PTH as described above. The treatment protocol was then repeated for two subsequent cycles, as outlined in FIG. 7.
During the course of the four treatment cycles, peripheral blood complete blood count (CBC) analysis was performed every 2 to 3 days. This analysis involved the collection of 100 μl of peripheral blood from the tail vein of the mice, which was subsequently analyzed on a HEMAVET 850FS (Drew Scientific). To avoid any deleterious effects from repeated tail bleeds, each individual mouse was only bled once per week.

[4] = tested on: HSCs in the peripheral circulation; assay: G-CSF mobilization of HSCs into peripheral circulation after chemotherapy; type: in vivo, C57Bl/6 mice; details: supportive growth factor therapy alone during chemotherapy
Method: as §2
(§3) At the end of the four-cycle treatment with cyclophosphamide and G-CSF/PTH, the bone marrow was removed from the treated mice and competitive transplants into B6.SJL mice were performed to measure the maintenance of the HSC pool in the bone marrow. This involved mixing 5×10^5 BM cells from the treated C57Bl/6 mice (CD45.2) with 2.5×10^5 BM cells from the B6.SJL mice (CD45.1). These cells were then injected into lethally irradiated B6.SJL mice. Eighteen weeks following injection of the cells, peripheral blood was collected from the mice and the relative contribution of the HSCs from the treated animals was measured by flow cytometry for the CD45.2^+ cells. To assess the ability of the HSCs to be mobilized into the peripheral circulation, one week following treatment mice were mobilized with G-CSF (5 μg/day) for 5 days. Peripheral blood (300 μl) was collected from these mice and mixed with 2.5×10^5 BM cells from a B6.SJL mouse. These cells were injected into a lethally irradiated B6.SJL host. Eighteen weeks following injection of the cells, peripheral blood was collected from the mice and the relative contribution of the HSCs from the treated animals was measured by flow cytometry for the CD45.2^+ cells.

[5] = tested on: HSC pool in the bone marrow; assay: HSC pool in bone marrow following chemotherapy (competitive transplant); type: in vivo, C57Bl/6 mice; details: G-CSF alone
Method: as §2, §3

In the case of “PTH(25-34) (RKKLQDVHNF; Parathyroid hormone; UniProt P01270 56-65, looked up, fragment)”, the “receptor binding / affinity” value (renal PTH receptors) is listed as “weak receptor binding activity”.

In the case of “PTH(1-25) (SVSEIQLMHNLGKHLNSMERVEWLR; Parathyroid hormone; UniProt P01270 32-56, looked up, fragment) [carboxyl-terminally truncated PTH fragment]”, the agonist activity [1] is listed as “inactive”.

In the case of [Tyr^34]bPTH(7-34)NH2, the “receptor binding / affinity” value (renal PTH receptors) is given as “moderate affinity” and the agonist activity [1] is given as “does not have any agonist activity”.

In the case of PTH(1-34), the agonist activity [1] is listed as “full agonist”.

For Osteopontin [OPN], the “Annexin staining (mode of effect)” value (C-1498/GFP cells [2]) was “growth inhibition rather than accelerated apoptosis”, the “inhibition of leukemia cell growth” value (C-1498/GFP cells [3]; 5 and 10 ug/ml OPN, FIG. 13b) was “sufficient to reproduce the inhibition of leukemia cell growth” and the “relative ability to limit primitive cell expansion” value (C-1498/GFP cells [3]; leukemic vs normal cells) was “greater in leukemic compared to normal cells”.

B1: granulocyte colony-stimulating factor (protein, UniProt P09919 31-207, looked up)
Granulocyte …: TPLGPASSLPQSFLLKCLEQVRKIQGDGAALQEKLVSECATYKLCHPEELVLLGHSLGIPWAPLSSCPSQALQLAGCLSQLHSGLFLYQGLLQALEGISPELGPTLDTLQLDVADFATTIWQQMEELGMAPALQPTQGAMPAFASAFQRRAGGVLVASHLQSFLEVSYRVLRHLAQP
notes: growth factor administered to augment recovery from chemotherapy-induced neutropenia
For B1, the “neutrophils count (NE) following chemotherapy” value (peripheral blood cells) was “significant increases”, the “white blood count (WBC) following chemotherapy” value (peripheral blood cells) was “significant increases” and the “mobilization of HSCs into the peripheral circulation” value [4] was “little to no mobilization”. For the same molecule, the “HSC pool in the bone marrow following chemotherapy” value [5] was “significant depletion of the HSC pool”.
